Fold change data for 20 compounds are collected here from PubChem BioAssay AID504481 (NMMLSC, 2011).

What all share (test): GFP reporter expression in transducer deletion yeast, mechanism study for yeast TOR pathway modulator project, S. cerevisiae, transducer mutant strains, GFP-tagged proteins (AID 504481);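 note: 1 = DMSO wells as ratio of mean channel GFP fluorescence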
Holding throughout (conditions): S. cerevisiae transducer mutants, GFP-fusion expression, flow cytometry, 3 h
On the technique in general: Flow cytometry measures light scatter and fluorescence of single cells or particles in a stream.

The subject of experiment [1] is YNL142W.
Experiment [2] relates to YCR005C.
Experiment [3] relates to BY4741.
Experiment [4] concerns YCL025C.
Experiment [5] has as its system YKL103C.
Experiment [6] deals with YBR084C-A.

The source made the active and inactive calls.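 Rule for the calls: active = fold change below 0.65 in a panel strain, matching the primary screen cutoff; inactive = the rest.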

Turning to `C/C(=N\NC(=O)c1ccc(C(C)(C)C)cc1)c1ccccn1`, the fold change is 0.97 (inactive) in experiment [1]; 1.47 (inactive) in experiment [2]; 0.905 (inactive) in experiment [3]; 1 (inactive) in experiment [4]; 0.921 (inactive) in experiment [5]; 0.975 (inactive) in experiment [6].

As for `Cc1cc(C(=O)Nc2nc(-c3ccccn3)cs2)ccc1[N+](=O)[O-]`, the fold change in experiment [1] is 0.965 (inactive); in experiment [2], 0.918 (inactive); in experiment [3] it was 0.913 (inactive); in experiment [4], 0.981 (inactive); in experiment [5], 1.01 (inactive); in experiment [6], 0.967 (inactive).

As for `O=C(Oc1ccnc2cc(Cl)ccc12)N1CCCCCC1`, the fold change is 1.97 in experiment [1]; 0.6 (inactive) in experiment [2]; 0.878 (inactive) in experiment [3]; 1.78 in experiment [4]; 0.97 (inactive) in experiment [5]; 1.09 (inactive) in experiment [6].

On to `O=[N+]([O-])c1ccc(O)c2ncccc12`, for which the fold change in experiment [1] was 1.26 (inactive); in experiment [2], 1.21 (inactive); in experiment [3] it was 1.48 (inactive); in experiment [4], 1.47 (inactive); in experiment [5], 2.22; in experiment [6], 1.19 (inactive).

With `O=C(Oc1c(Cl)cc(Cl)c2cccnc12)c1ccco1`, the fold change in experiment [1] was 0.881 (inactive); in experiment [2], 1.2 (inactive); in experiment [3], 1.03 (inactive); in experiment [4], 0.784 (inactive); in experiment [5], 1.37 (inactive); in experiment [6] it was 1.14 (inactive).

In the case of `CC(C)(C)C(=O)C(Cl)C(=O)Nc1ccccc1` (stereo not given), the fold change is 1.36 (inactive) in experiment [1]; 1.44 (inactive) in experiment [2]; 1 (inactive) in experiment [3]; 1.11 (inactive) in experiment [4]; 2.24 in experiment [5]; 0.877 (inactive) in experiment [6].

For `COc1ccc([N+](=O)[O-])c(S(=O)(=O)c2ccccc2)n1`, the fold change in experiment [1] was 0.958 (inactive); in experiment [2], 0.91 (inactive); in experiment [3], 0.935 (inactive); in experiment [4] it was 1.08 (inactive); in experiment [5], 1.86; in experiment [6], 0.944 (inactive).

In the case of `Cc1ccc(S(=O)(=O)c2ccc([N+](=O)[O-])cn2)cc1`, the fold change in experiment [1] is 1.36 (inactive); in experiment [2], 1.62; in experiment [3], 1.05 (inactive); in experiment [4] it was 1.17 (inactive); in experiment [5], 1.65; in experiment [6] it was 0.894 (inactive).

For `COc1ccc([N+](=O)[O-])c(S(=O)(=O)c2ccc(Cl)cc2)n1`, the fold change was 1.28 (inactive) in experiment [1]; 0.893 (inactive) in experiment [2]; 1.1 (inactive) in experiment [3]; 1.31 (inactive) in experiment [4]; 2.87 in experiment [5]; 0.841 (inactive) in experiment [6].

With `CC(=O)SC(C[N+](=O)[O-])c1cn(C(C)=O)c2ccccc12` (stereo not given), the fold change in experiment [1] was 0.785 (inactive); in experiment [2], 0.93 (inactive); in experiment [3], 1 (inactive); in experiment [4] it was 0.77 (inactive); in experiment [5], 1.48 (inactive); in experiment [6] it was 1.08 (inactive).

On to `COc1ccc(/C=C/C(=O)NC(=S)NNC(=O)c2cnccn2)cc1`, for which the fold change in experiment [1] was 1.27 (inactive); in experiment [2], 1.05 (inactive); in experiment [3], 1.19 (inactive); in experiment [4], 1.01 (inactive); in experiment [5], 1.51; in experiment [6] it was 0.936 (inactive).

Turning to `O=C(NC(=S)NNC(=O)c1cnccn1)c1ccc(F)cc1`, the fold change in experiment [1] was 1.23 (inactive); in experiment [2], 0.816 (inactive); in experiment [3], 1.1 (inactive); in experiment [4], 1.02 (inactive); in experiment [5], 1.54; in experiment [6], 0.875 (inactive).

Regarding `CN1CCN(C(c2ccc(C(F)(F)F)cc2)c2ccc3cccnc3c2O)CC1` (stereo not given), the fold change in experiment [1] is 0.91 (inactive); in experiment [2] it was 0.725 (inactive); in experiment [3], 0.87 (inactive); in experiment [4], 0.972 (inactive); in experiment [5], 1.35 (inactive); in experiment [6] it was 0.878 (inactive).

For `CC(Oc1ccc(Cl)cc1)C(=O)NNC(=S)NC(=O)c1ccco1` (stereo not given), the fold change is 1.33 (inactive) in experiment [1]; 1.21 (inactive) in experiment [2]; 1.49 (inactive) in experiment [3]; 0.906 (inactive) in experiment [4]; 2.14 in experiment [5]; 1.09 (inactive) in experiment [6].

As for `COc1ccc(C(=O)NNC(=S)NC(=O)/C=C/c2cccs2)cc1`, the fold change in experiment [1] is 1.13 (inactive); in experiment [2], 1.07 (inactive); in experiment [3], 1.03 (inactive); in experiment [4] it was 1.38 (inactive); in experiment [5] it was 1.51; in experiment [6], 1.23 (inactive).

With `CCCCC(=O)NNC(=S)NC(=O)c1ccc(C)cc1`, the fold change in experiment [1] was 1.25 (inactive); in experiment [2], 1.02 (inactive); in experiment [3], 1.66 (inactive); in experiment [4], 1.12 (inactive); in experiment [5], 2.75; in experiment [6], 1.27 (inactive).

Take `CCCOc1ccc(C(=O)NNC(=S)NC(=O)CC)cc1`: the fold change was 1.17 (inactive) in experiment [1]; 1.21 (inactive) in experiment [2]; 1.77 (inactive) in experiment [3]; 1.05 (inactive) in experiment [4]; 2.42 in experiment [5]; 1.22 (inactive) in experiment [6].

On to `Cc1ccc(C(c2cc(Cl)c3cccnc3c2O)N2CCN(C)CC2)cc1` (stereo not given), for which the fold change is 1.03 (inactive) in experiment [1]; 0.889 (inactive) in experiment [2]; 0.978 (inactive) in experiment [3]; 1.06 (inactive) in experiment [4]; 1.8 in experiment [5]; 1.03 (inactive) in experiment [6].

In the case of `O=C1ON=C(c2ccccc2)/C1=C/c1ccco1`, the fold change is 1.09 (inactive) in experiment [1]; 1.4 (inactive) in experiment [2]; 1.32 (inactive) in experiment [3]; 0.866 (inactive) in experiment [4]; 1.37 (inactive) in experiment [5]; 1.02 (inactive) in experiment [6].

Take `O=[N+]([O-])c1cc(Cl)c2cccnc2c1O`: the fold change is 1.14 (inactive) in experiment [1]; 0.922 (inactive) in experiment [2]; 0.935 (inactive) in experiment [3]; 1.27 (inactive) in experiment [4]; 1.43 (inactive) in experiment [5]; 1.05 (inactive) in experiment [6].
